# Measurements: patent US20220315554A1, “COMPOUNDS COMPRISING A […] LIGAND AND USE THEREOF” (priority 2019, published 2022)
# Numbered stars: 1 amine (or outer) side, 2 acyl side, 3 side chain; on linkers, the order of the positions; unused ones are H or OH. Bridge positions count the residues as written; N and C are the ends. Peptide text beside a SMILES is read from it. * marks the point of attachment. X1 = O=C(O)CN1CCN(CC(=O)O)CCN(CC(=O)N2CCN(Cc3cc(C[*:1])cc(C[*:2])c3)CC2)CCN(CC(=O)O)CC1; Hexanoyl = CCCCCC(=O)*
# Experiments:
# [1] = biological target: 5-HT2B (h) (Homo sapiens, UniProt P41595); conditions: read-out: Ki Ref, reference compound (positive control)
# [2] = biological target: T1, FAP-expressing human WI-38 fibroblasts (Homo sapiens, UniProt Q12884); experiment: Competitive FACS binding assay; conditions: pIC50 Category (FACS), competition with 3 nM Cy5-labeled compound, WI-38 fibroblasts, 4° C., 1 hour
# T1 construct: FAP-expressing human WI-38 fibroblasts (ECACC) were cultured in EMEM; host or cells: WI-38 human fibroblasts
# T1 sequence (Q12884 1-760): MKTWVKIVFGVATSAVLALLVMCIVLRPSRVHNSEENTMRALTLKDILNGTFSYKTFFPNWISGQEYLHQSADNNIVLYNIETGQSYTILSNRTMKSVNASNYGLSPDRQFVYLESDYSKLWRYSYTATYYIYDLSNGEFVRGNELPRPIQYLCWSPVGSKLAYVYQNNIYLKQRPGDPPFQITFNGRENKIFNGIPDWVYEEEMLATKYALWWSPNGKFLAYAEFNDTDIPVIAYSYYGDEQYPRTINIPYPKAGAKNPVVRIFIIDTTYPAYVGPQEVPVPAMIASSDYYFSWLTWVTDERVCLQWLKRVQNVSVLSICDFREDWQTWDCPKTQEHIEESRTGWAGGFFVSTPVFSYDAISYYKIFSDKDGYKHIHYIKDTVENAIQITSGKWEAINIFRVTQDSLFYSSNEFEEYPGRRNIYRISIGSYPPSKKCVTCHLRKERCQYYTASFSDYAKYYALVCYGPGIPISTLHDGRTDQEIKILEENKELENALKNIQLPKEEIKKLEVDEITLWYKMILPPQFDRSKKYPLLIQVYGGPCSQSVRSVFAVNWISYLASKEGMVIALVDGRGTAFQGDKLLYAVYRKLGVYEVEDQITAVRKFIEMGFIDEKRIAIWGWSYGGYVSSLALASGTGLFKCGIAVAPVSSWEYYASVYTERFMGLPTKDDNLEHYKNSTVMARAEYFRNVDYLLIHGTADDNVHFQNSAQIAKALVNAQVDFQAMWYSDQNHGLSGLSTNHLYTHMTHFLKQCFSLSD
# Experimental: Cells were analyzed in an Attune NxT flow cytometer. […]
# [3] = tested on: Na+ channel (site 2); experiment: SafetyScreen44: Na+ channel (site 2) (antagonist radioligand); type: binding; conditions: 10 μM
# [4] = tested on: KV channel; conditions: 10 μM
# [5] = tested on: NMDA; conditions: 10 μM
# [6] = tested on: BZD (central); conditions: 10 μM
# [7] = biological target: T2, Recombinant human DPP4 (Homo sapiens, UniProt P27487); experiment: DPP4 protease activity assay; type: biochemical
# T2 construct: purchased R&D systems 9168-SE
# [8] = Plasma stability assay, mouse plasma; type: in vitro ADME; conditions: 24 h incubation, 37° C., read-out: % intact compound remaining after incubation, Mouse plasma
# [9] = biological target: hERG potassium channel (Homo sapiens, UniProt Q12809); experiment: in vitro
# [10] = biological target: T3, Human recombinant FAP (Homo sapiens, UniProt Q12884); experiment: Surface plasmon resonance (Biacore) assay; type: binding
# T3 sequence (Q12884 1-760): T1 sequence (Q12884 1-760)
# [11] = biological target: T4, recombinant human PREP (Homo sapiens, UniProt P48147); experiment: PREP protease activity assay; type: biochemical
# T4 construct: purchased R&D systems 4308-SE
# T4 sequence (P48147 1-710): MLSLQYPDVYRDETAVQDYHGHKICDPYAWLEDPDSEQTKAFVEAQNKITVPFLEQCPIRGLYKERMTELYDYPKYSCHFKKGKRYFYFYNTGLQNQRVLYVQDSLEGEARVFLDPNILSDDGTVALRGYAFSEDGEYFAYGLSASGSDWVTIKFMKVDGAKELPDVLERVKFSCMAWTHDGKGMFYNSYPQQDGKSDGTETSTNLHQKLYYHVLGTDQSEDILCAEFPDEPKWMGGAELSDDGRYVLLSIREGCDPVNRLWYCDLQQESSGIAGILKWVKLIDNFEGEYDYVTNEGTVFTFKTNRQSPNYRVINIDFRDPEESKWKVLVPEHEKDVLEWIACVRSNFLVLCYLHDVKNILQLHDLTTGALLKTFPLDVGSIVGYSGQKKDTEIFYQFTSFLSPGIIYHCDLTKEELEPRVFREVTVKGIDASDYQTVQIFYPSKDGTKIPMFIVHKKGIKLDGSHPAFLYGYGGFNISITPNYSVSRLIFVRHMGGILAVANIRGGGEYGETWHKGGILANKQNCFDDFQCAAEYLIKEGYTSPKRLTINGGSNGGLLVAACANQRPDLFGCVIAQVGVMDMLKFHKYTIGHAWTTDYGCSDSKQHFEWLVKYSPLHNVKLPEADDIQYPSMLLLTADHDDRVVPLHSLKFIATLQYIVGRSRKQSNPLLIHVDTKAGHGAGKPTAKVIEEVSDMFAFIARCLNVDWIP
# [12] = Plasma stability assay, human plasma; type: in vitro ADME; conditions: 24 h incubation, 37° C., read-out: % intact compound remaining after incubation, Human plasma
# [13] = in vitro; conditions: rat, plasma
# [14] = biological target: T5, proteases (Hepatitis C virus genotype 1b, UniProt P26663, R1181K); experiment: biochemical; conditions: for inhibition at 1 µM / inhibition at 10 µM: read-out: Percentage inhibition (%)
# T5 construct: BPS Biosciences (contract assay)
# [15] = biological target: T6, proteases (Hepatitis C virus genotype 1b, UniProt P26663, D1194V); experiment: biochemical; conditions: read-out: Percentage inhibition (%)
# T6 construct: BPS Biosciences (contract assay)
# [16] = biological target: T7, proteases (Hepatitis C virus genotype 1b, UniProt P26663, R1181Q); experiment: biochemical; conditions: read-out: Percentage inhibition (%)
# T7 construct: BPS Biosciences (contract assay)
# [17] = biological target: T8, proteases (Hepatitis C virus genotype 1b, UniProt P26663); experiment: biochemical; conditions: read-out: Percentage inhibition (%)
# T8 construct: BPS Biosciences (contract assay)
# [18] = biological target: T9, proteases (Hepatitis C virus genotype 1a, UniProt P27958, D1194V); experiment: biochemical
# T9 construct: BPS Biosciences (contract assay)
# [19] = biological target: T3, Human recombinant FAP; experiment: FRET-based FAP protease activity assay; type: biochemical; set-up: purchased R&D systems 3715-SE; conditions: pIC50 Category (Activity), recombinant human FAP, FRET substrate, 37° C.
# [20] = tested on: Ca2+ channel (L, dihydropyridine site); conditions: 10 μM
# [21] = biological target: AR (h) (Homo sapiens, UniProt P10275, T878A); experiment: biochemical; conditions: read-out: % Inhibition of Specific Binding
# [22] = in vivo; conditions: rat, plasma, intravenous; for Vd: rat plasma
# [23] = biological target: T10, proteases (Hepatitis C virus genotype 2a, UniProt Q99IB8); experiment: biochemical; conditions: serine protease NS3 (a.a. 3-181) from Hepatitis C virus genotype 2a; reference at 100 nM
# T10 construct: BPS Biosciences (contract assay)
# [24] = biological target: T11, proteases (Homo sapiens, UniProt P03956); experiment: biochemical; conditions: Matrix metalloprotease1; reference at 1 μM
# T11 construct: BPS Biosciences (contract assay)
# [25] = biological target: T12, proteases (Homo sapiens, UniProt P14780, Q279R); experiment: biochemical; conditions: 0.1 µM
# T12 construct: BPS Biosciences (contract assay)
# [26] = biological target: T13, proteases (Homo sapiens, UniProt P08253); experiment: biochemical; conditions: Matrix metalloprotease 2; reference at 100 nM
# T13 construct: BPS Biosciences (contract assay)
# [27] = biological target: alpha 1A (h) (Homo sapiens, UniProt P35348); conditions: read-out: Ki Ref, reference compound (positive control)
# [28] = tested on: HEK-FAP tumors; experiment: Efficacy study HEK-FAP tumors; conditions: throughout the study
# [29] = tested on: Sarc4809 PDX tumors; experiment: Efficacy study sarcoma Sarc4809 PDX model; conditions: throughout the study
# [30] = read-out: Percentage inhibition (%)
smiles,measurement,setting,value
COc1cc(CC(C)N)c(OC)cc1I (racemic) [(±)DOI],Ki,[1],4.2 nM
"CCCCCC(=O)N[C@H]1CSCc2cc(cc(CN3CCN(C(=O)CN4CCN(CC(=O)O)CCN(CC(=O)O)CCN(CC(=O)O)CC4)CC3)c2)CSC[C@@H](C(=O)N[C@@H](CC(=O)O)C(N)=O)NC(=O)[C@H](Cc2ccccc2)NC(=O)[C@H](CCC(N)=O)NC(=O)[C@H]([C@@H](C)O)NC(=O)[C@@H]2CCCN2C(=O)[C@@H]2CCCN2C1=O [3BP-3407, Hex-[Cys(tMeBn(DOTA-PP))-Pro-Pro-Thr-Gln-Phe-Cys]-Asp-NH2] (Hexanoyl-CPPTQFCD-NH2; linker 1-7 via X1)",IC50,[2],< 10 nM
same,% Inhibition of Specific Binding,[3],−7%
same,% Inhibition of Specific Binding,[4],−5%
same,% Inhibition of Specific Binding,[5],9%
same,% Inhibition of Specific Binding,[6],−9%
same,IC50,[7],> 1000 nM
same,"remaining at 24 h, 9.8 µM",[8],79%
same,inhibition at 10 µM,[9],2%
same,Kd,[10],< 10 nM
same,IC50,[11],> 1000 nM
same,"remaining at 24 h, 9.8 µM",[12],100%
same,"remaining at 24 h, 9.8 µM",[13],100%
same,inhibition at 1 µM,[14],-2%
same,inhibition at 10 µM,[14],5%
same,inhibition at 1 µM,[15],1%
same,inhibition at 10 µM,[15],-6%
same,inhibition at 1 µM,[16],0%
same,inhibition at 10 µM,[16],2%
same,inhibition at 1 µM,[17],1%
same,inhibition at 10 µM,[17],5%
same,inhibition at 1 µM,[18]; [30],1%
same,inhibition at 10 µM,[18]; [30],-68%
same,IC50,[19],< 10 nM
same,% Inhibition of Specific Binding,[20],42%
same,inhibition at 10 µM,[21],3%
"CCCCCC(=O)N[C@H]1CSCc2cc(CSCCNC(=O)CN3CCN(CC(=O)O)CCN(CC(=O)O)CCN(CC(=O)O)CC3)cc(c2)CSC[C@@H](C(=O)O)NC(=O)[C@H](Cc2ccccc2)NC(=O)[C@H](CCC(N)=O)NC(=O)[C@H]([C@@H](C)O)NC(=O)[C@@H]2CCCN2C(=O)[C@@H]2CCCN2C1=O [3BP-3554, Hex-[Cys(tMeBn(DOTA-AET))-Pro-Pro-Thr-Gln-Phe-Cys]-OH]",IC50,[2],< 10 nM
same,% Inhibition of Specific Binding,[3],14%
same,% Inhibition of Specific Binding,[4],4%
same,% Inhibition of Specific Binding,[5],1%
same,% Inhibition of Specific Binding,[6],5%
same,IC50,[7],> 1000 nM
same,inhibition at 10 µM,[9],6%
same,Kd,[10],< 10 nM
same,IC50,[11],> 1000 nM
same,"remaining at 24 h, 9.8 µM",[12],100%
same,AUC(0-inf),[22]; 2 nmol/kg,0.0081 µM·h
same,C0,[22]; 2 nmol/kg,10.3 nM
same,clearance,[22]; 2 nmol/kg,4.13 mL/min/kg
same,half-life,[22]; 2 nmol/kg,54 min
same,Vd,"[22]; 2 nmol/kg, Vss, 2 nmol/kg",0.28 L/kg
same,Vd,"[22]; 2 nmol/kg, Vz",0.32 L/kg
same,AUC(0-inf),[22]; 20 nmol/kg,0.069 µM·h
same,C0,[22]; 20 nmol/kg,111 nM
same,clearance,[22]; 20 nmol/kg,4.85 mL/min/kg
same,half-life,[22]; 20 nmol/kg,50 min
same,Vd,"[22]; 20 nmol/kg, Vss, 20 nmol/kg",0.3 L/kg
same,Vd,"[22]; 20 nmol/kg, Vz",0.35 L/kg
same,AUC(0-inf),[22]; 200 nmol/kg,0.726 µM·h
same,C0,[22]; 200 nmol/kg,1480 nM
same,clearance,[22]; 200 nmol/kg,4.58 mL/min/kg
same,half-life,[22]; 200 nmol/kg,63 min
same,Vd,"[22]; 200 nmol/kg, Vss, 200 nmol/kg",0.17 L/kg
same,Vd,"[22]; 200 nmol/kg, Vz",0.42 L/kg
same,"remaining at 24 h, 9.8 µM",[13],100%
same,inhibition at 1 µM,[14],-1%
same,inhibition at 10 µM,[14],0%
same,inhibition at 1 µM,[15],-2%
same,inhibition at 10 µM,[15],-17%
same,inhibition at 1 µM,[16],0%
same,inhibition at 10 µM,[16],-5%
same,inhibition at 1 µM,[17],-5%
same,inhibition at 10 µM,[17],-9%
same,inhibition at 1 µM,[18]; [30],-39%
same,IC50,[19],< 10 nM
same,% Inhibition of Specific Binding,[20],54%
same,inhibition at 10 µM,[21],-5%
CC(C)(C)OC(=O)N[C@H]1CCCCC/C=C\[C@@H]2C[C@@]2(C(=O)NS(=O)(=O)C2CC2)NC(=O)[C@@H]2C[C@@H](OC(=O)N3Cc4cccc(F)c4C3)CN2C1=O [Denoprevir],Percentage inhibition (%) Reference,[23],98%
same,Percentage inhibition (%) Reference,"[14]; serine protease NS3 (a.a. 3-181) from Hepatitis C virus genotype 1b (mutant R155K), reference at 100 nM",90%
same,Percentage inhibition (%) Reference,"[18]; serine protease NS3 (a.a. 3-181) from Hepatitis C virus genotype 1a (mutant D168 V), reference at 100 nM",94%
COc1ccc(S(=O)(=O)N(CC(=O)NO)CC(C)C)cc1 [NNGH],Percentage inhibition (%) Reference,[24],87%
same,Percentage inhibition (%) Reference,[25],92%
same,Percentage inhibition (%) Reference,[26],95%
COc1cccc(OC)c1OCCNCC1COc2ccccc2O1 (stereo not shown) [WB 4101],Ki,[27],0.24 nM
"CCCCCC(=O)N[C@H]1CSCc2cc(CSCCNC(=O)CN3CCN(CC(=O)O)CCN(CC(=O)O)CCN(CC(=O)O)CC3)cc(c2)CSC[C@@H](C(=O)O)NC(=O)[C@H](Cc2ccccc2)NC(=O)[C@H](CCC(N)=O)NC(=O)[C@H]([C@@H](C)O)NC(=O)[C@@H]2CCCN2C(=O)[C@@H]2CCCN2C1=O [^177Lu-3BP-3554, metal not drawn]",treatment-related body weight loss,[28],No treatment-related body weight loss
same,treatment-related body weight loss (BWL),[29],No treatment-related body weight loss
